The text below walks through data of patent US4489089A, “Substituted N-[ω-(1H-imidazol-1-yl)alkyl]-amides” (American Cyanamid Company, priority 1984, dated 1984).

One experiment concerns the target T1, thromboxane synthetase (Rattus norvegicus, UniProt P49430).
T1 construct: The platelets were isolated by centrifuging the PRP for 10 minutes at 1060×g; endogenous in cells; host or cells: washed platelets from arterial blood of Okamoto-Aoki spontaneously hypertensive rats (Taconic Farms)
T1 sequence (P49430 1-533): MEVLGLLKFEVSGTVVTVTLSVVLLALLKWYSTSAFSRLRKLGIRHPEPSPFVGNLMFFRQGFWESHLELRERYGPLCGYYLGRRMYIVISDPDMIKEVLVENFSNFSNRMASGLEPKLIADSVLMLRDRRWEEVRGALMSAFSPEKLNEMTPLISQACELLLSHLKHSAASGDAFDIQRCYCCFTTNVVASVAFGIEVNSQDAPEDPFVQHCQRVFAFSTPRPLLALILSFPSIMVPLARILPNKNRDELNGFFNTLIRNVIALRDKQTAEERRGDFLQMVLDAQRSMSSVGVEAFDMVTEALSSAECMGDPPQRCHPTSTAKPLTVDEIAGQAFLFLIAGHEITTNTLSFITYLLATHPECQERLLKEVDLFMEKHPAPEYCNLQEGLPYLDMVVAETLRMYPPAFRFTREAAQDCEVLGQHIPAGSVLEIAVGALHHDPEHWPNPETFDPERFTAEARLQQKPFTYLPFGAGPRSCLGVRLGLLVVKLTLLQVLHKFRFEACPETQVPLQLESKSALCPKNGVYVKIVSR
Kind of experiment: inhibition of thromboxane (TX) formation in rat platelets, TXB2 determined by radio-immunoassay (RIA). The format is cell-based, Okamoto-Aoki spontaneously hypertensive rats (SHR). The following applies: 10^-4 M; SHR washed platelets; 10 minutes at 37° C. The procedure:
Under urethan anesthesia, […]. of arterial blood was collected in one ml. of 3.2% sodium citrate in a polystyrene tube from Okamoto-Aoki spontaneously hypertensive rats (SHR) (Taconic Farms, Germantown, NY) between 19 and 24 weeks in age. The blood was diluted with 3 ml. cold saline and centrifuged at room temperature for 15 minutes at 460×g. The platelet rich plasma (PRP) was separated. The platelets were isolated by centrifuging the PRP for 10 minutes at 1060×g and were washed in 4 ml. cold oxygenated Krebs phosphate buffer, pH 7.4. The chilled platelets recovered from centrifuging at 800×g for 10 minutes were resuspended in oxygenated Krebs phosphate buffer and diluted to contain 4.5-6.0×10^4 platelts/μl.
The inhibition of thromboxane (TX) formation was studied by determing the concentration of thromboxane B2 (TXB2), the stable hydrolysis product of TXA2. Assay samples, prepared on ice, contained 200 μl. platelet suspension, 50 μl. saline, and 50 μl. vehicle or drug under study (OKY-1581, UK-37248-01, 1-benzylimidazole, or indomethacin). The samples were incubated for 10 minutes at 37° C. in a metabolic shaker. The reaction was terminated by immersing the tubes in an ice bath and adding 50 μl. of 0.5M citric acid. The samples were centrifuged for 10 minutes in a refrigerated centrifuge and the supernatants thus obtained were decanted and stored at -20° C. The TXB2 content for each sample was determined by a direct radio-immunoassay (RIA) utilizing a TXB2 specific RIA kit purchased from New England Nuclear, Boston, MA and expressed as pg TXB2 formed minute^-1 sample^-1, from which the percent inhibition of TXB2 formation was calculated. The results of this test on representative compounds of this invention appear in Table I

Experiment [1] relates to spontaneously hypertensive rats of the Okamoto strain. Kind of experiment: hypotensive activity (mean arterial blood pressure) in spontaneously hypertensive rats. The format is in vivo. The following applies: 100 mg/kg or less by gavage, two doses 24 h apart; measured 28 hours after initial dose; mean of 1-3 rats; starting MABP 160±1.5 mm. As for the experimental part:
The novel compounds of the present invention are also active hypotensive agents and were tested for hypotensive activity by the method of P. S. Chan and D. Poorvin, Clinical and Experimental Hypertension, 1 (6), 817-830 (1979). Male, 16 week old, spontaneously hypertensive rats of the Okamoto strain, from Taconic Farms, Germantown, N.Y. having an average mean arterial blood pressure of 160±1.5 mm of mercury are used in the test. One to 3 rats are used per test compound. A rat is dosed by gavage with a test compound, suspended in 2% pre-boiled starch at a concentration of 50 mg/ml, at a dose of 100 mg/kg of body weight or less, with 0.9% sodium chloride loading at a dose 25 ml/kg of body weight. A second identical dose of the test compound, without sodium chloride loading is given 24 hours later. At 28 hours after the initial dose, the mean arterial blood pressure (MABP) is measured by the method of Chan and Poorvin vide supra. The procedure is repeated in a second and third rat when necessary. Based on the data obtained and using the three-stage "sequential probability ratio test" statistical method, the critieria for activity or retest are as follows:
If the blood pressure in the first rat is ≤116 mm mercury the compound is considered active. If the blood pressure is between […], a second rat is used. If the average blood pressure of the first and second rats is ≤122 mm the compound is considered active. If the average blood pressure is between 123 and 137 mm, a third rat is used. If the average blood pressure of the three rats is ≤128 mm the compound is considered active. The results of this test on representative compounds of the present invention appear in Table II below.

For `O=C(NCCCn1ccnc1)c1ccco1` [Example 1, N-[3-(1H-Imidazol-1-yl)propyl]-2-furanecarboxamide], testing at 100 µM against thromboxane synthetase gave an inhibition of 97%. As to `O=C(NCCCn1ccnc1)c1sc2ccccc2c1Cl` [Example 2, 3-chloro-N--[3-(1H--imidazol-1-yl)propyl]benzo[b]thiophene-2-carboxamide], the inhibition (usually the percentage by which the read-out fell short of the control) at 100 µM at thromboxane synthetase came out at 100%. Turning to `O=C(NCCCn1ccnc1)c1sc2cc(F)ccc2c1Cl` [Example 3, 3-chloro-6-fluoro-N--[3-(1H--imidazol-1-yl)propyl]benzo[b]thiophene-2-carboxamide], the inhibition at 100 µM against thromboxane synthetase worked out at 96%. Regarding `Cc1ccc2c(Cl)c(C(=O)NCCCn3ccnc3)sc2c1` [Example 4, 3-chloro-N--[3-(1H--imidazol-1-yl)propyl]-6-methyl-benzo[b]thiophene-2-carboxamide], at thromboxane synthetase, the inhibition at 100 µM was 96%. Regarding `O=C(NCCCn1ccnc1)c1ccoc1` [Example 5, N-[3-(1H-Imidazol-1-yl)propyl]-3-furanecarboxamide], the “MABP (mean arterial blood pressure)” value in experiment [1] was found to be 128 mm Hg. Moreover, at 100 µM the inhibition on thromboxane synthetase was 78%. Regarding `O=C(NCCCn1ccnc1)c1ccc(Br)o1` [Example 6, 5-bromo-N--[3-(1H--imidazol-1-yl)propyl]-2-furanecarboxamide], on thromboxane synthetase, the inhibition at 100 µM worked out at 82%.

At thromboxane synthetase, `O=C(NCCCn1ccnc1)c1cccs1` [Example 7, N--[3-(1H--imidazol-1-yl)propyl]-2-thiophenecarboxamide] registered an inhibition at 100 µM of 93%.

Turning to `Cc1ccc(C(=O)NCCCn2ccnc2)s1` [Example 8, N--[3-(1H--imidazol-1-yl)propyl]-5-methyl-2-thiophenecarboxamide], on thromboxane synthetase, the inhibition at 100 µM is 96%. In turn, `O=C(NCCCn1ccnc1)c1cc(Br)c(Br)s1` [Example 9, 4,5-dibromo-N--[3-(1H--imidazol-1-yl)propyl]-2-thiophenecarboxamide] yielded an inhibition at 100 µM on thromboxane synthetase of 100%. Compound `O=C(NCCCn1ccnc1)c1cc2ccccc2o1` [Example 10, N--[3-(1H--imidazol-1-yl)propyl]-2-benzofuranecarboxamide] showed an inhibition at 100 µM against thromboxane synthetase of 97%. `O=C(NCCCn1ccnc1)c1cc2cc(Cl)ccc2s1` [Example 11, 5-chloro-N--[3-(1H--imidazol-1-yl)propyl]benzo[b]thiophene-2-carboxamide]: at thromboxane synthetase, the inhibition at 100 µM was found to be 100%. The same measure, in the same setting: the result for `O=C(C=Cc1ccco1)NCCCn1ccnc1` [Example 14, N--[3-(1H--imidazol-1-yl)propyl]-3-(2-furanyl)-2-propenamide] reads 78%. On the same count and under the same terms, the value for `O=C(C=Cc1cccs1)NCCCn1ccnc1` [Example 15, N--[3-(1H--imidazol-1-yl)propyl]-3-(2-thienyl)-2-propenamide] was 100%.

For `O=C(NCCCn1ccnc1)c1ccc([N+](=O)[O-])o1` [Example 16], the “MABP (mean arterial blood pressure)” value in experiment [1] is 114 mm Hg. This compound also gave an inhibition at 100 µM against thromboxane synthetase of 64%.

`O=C(CCCc1cccs1)NCCCn1ccnc1` [Example 17, N--[3-(1H--imidazol-1-yl)propyl]-2-thiophenebutyramide]: in experiment [1], the “MABP (mean arterial blood pressure)” value was 121 mm Hg. As for `O=C(NCCCn1ccnc1)C(=O)c1cccs1` [Example 18, N--[3-(1H--imidazol-1-yl)propyl]-α-oxo-thiophene acetamide], in experiment [1], the “MABP (mean arterial blood pressure)” value is 125 mm Hg. Besides, on thromboxane synthetase, the inhibition at 100 µM is 73%. Turning to `O=C(NCCCn1ccnc1)c1ccc(Cl)s1` [Example 19, 5-chloro-N--[3-(1H--imidazol-1-yl)propyl]thiophene-2-carboxamide], the “MABP (mean arterial blood pressure)” value in experiment [1] was found to be 125 mm Hg. In addition, testing at 100 µM against thromboxane synthetase gave an inhibition of 95%. For `O=C(NCCn1ccnc1)c1sc2ccccc2c1Cl` [Example 20, 3-Chloro-N-[2-(1H-imidazol-1-yl)ethyl]benzo[b]thiophene-2-carboxamide], the “MABP (mean arterial blood pressure)” value in experiment [1] is 117 mm Hg. This compound registered an inhibition at 100 µM on thromboxane synthetase of 70%.

`CCc1nccn1CCCNC(=O)c1sc2ccccc2c1Cl` [Example 22, 3-chloro-N--[3-(2-ethyl-1H--imidazol-1-yl)propyl]benzo[b]thiophene-2-carboxamide] registered an inhibition at 100 µM against thromboxane synthetase of 55%.

For `Cc1cn(CCCNC(=O)c2sc3ccccc3c2Cl)cn1` [Example 24, 3-chloro-N--[3-(4-methyl-1H--imidazol-1-yl)propyl]benzo[b]thiophene-2-carboxamide], 100 µM produced 98% inhibition on thromboxane synthetase.

As for `Cc1cn(CCCNC(=O)c2cccs2)cn1` [Example 25, N--[3-(4-methyl-1H--imidazol-1-yl)propyl]thiophene-2-carboxamide], at thromboxane synthetase, the inhibition at 100 µM was determined as 51%. `O=C(NCCCCn1ccnc1)c1ccco1` [Example 28, N-[4-(1H-Imidazol-1-yl)butyl]-2-furanecarboxamide]: at 100 µM the inhibition on thromboxane synthetase was 87%. On the same count and under the same terms, the value for `O=C(NCCCCn1ccnc1)c1sc2ccccc2c1Cl` [Example 29, 3-chloro-N--[4-(1H--imidazol-1-yl)butyl]benzo[b]thiophene-2-carboxamide] was 91%.

With `O=C(NCCCCn1ccnc1)c1ccc(Cl)s1` [Example 30, 5-chloro-N--[4-(1H--imidazol-1-yl)butyl]thiophene-2-carboxamide], the “MABP (mean arterial blood pressure)” value in experiment [1] is recorded as 118 mm Hg. Turning to `O=C(NCCCCn1ccnc1)c1cccs1` [Example 31, N--[4-(1H--imidazol-1-yl)butyl]thiophene-2-carboxamide], the “MABP (mean arterial blood pressure)” value in experiment [1] was 114 mm Hg. For the same compound, at thromboxane synthetase, at 100 µM the inhibition was 95%.
